Measurements published in ChEMBL document CHEMBL1201862, “PubChem BioAssay data set” (2004).
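Step 1: Grow cells in 96-well plates. Step 2: Expose to compound for 48 hours at 5 concentrations. Step 3: Interpolate endpoints linearly; if unreached, use highest concentration. At the GI50, growth is halved.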 Calls of active or inactive are those of the source. No stated cut-off is given here; in the data, active = GI50 up to about 1.1 µM and inactive = higher.

What was measured:
Assay in all cases: inhibition of tumour cell growth, NCI panel, 48 h
[1] = tested on: OVCAR-8
[2] = tested on: ACHN
[3] = tested on: HOP-62
[4] = tested on: OVCAR-3
[5] = tested on: SK-MEL-5
[6] = tested on: U-251
[7] = tested on: HCC 2998
[8] = tested on: MCF7
[9] = tested on: TK-10
[10] = tested on: NCI-H522
[11] = tested on: IGROV-1
[12] = tested on: HT-29
[13] = tested on: SR
[14] = tested on: NCI-H460
[15] = tested on: SF-268
[16] = tested on: A549
[17] = tested on: UACC-62
[18] = tested on: MDA-MB-435
[19] = tested on: SF-539
[20] = tested on: HCT-15
[21] = tested on: HOP-92
[22] = tested on: CCRF-CEM
[23] = tested on: T47D
[24] = tested on: K562
[25] = tested on: NCI-H23
[26] = tested on: BT-549
[27] = tested on: MDA-MB-231
[28] = tested on: NCI-H226
[29] = tested on: RPMI-8226
[30] = tested on: HCT-116
[31] = tested on: Hs-578T
[32] = tested on: COLO 205
[33] = tested on: SF-295
[34] = tested on: DU-145
[35] = tested on: MDA-N
[36] = tested on: SN12C
[37] = tested on: SK-MEL-28
[38] = tested on: M14
[39] = tested on: UO-31
[40] = tested on: SNB-75
[41] = tested on: RXF 393
[42] = tested on: OVCAR-4
[43] = tested on: SW-620
[44] = tested on: Malme-3M
[45] = tested on: HL-60
[46] = tested on: SK-MEL-2
[47] = tested on: SNB-19
[48] = tested on: LOX IMVI
[49] = tested on: 786-0
[50] = tested on: KM12
[51] = tested on: MOLT-4
[52] = tested on: A498
[53] = tested on: PC-3
[54] = tested on: SK-OV-3
[55] = tested on: CAKI-1
[56] = tested on: EKVX
[57] = tested on: NCI/ADR-RES
[58] = tested on: UACC-257
[59] = tested on: OVCAR-5

SMILES: COc1ccccc1CNCCCCCNCCCCCCCCCCNCCCCCNCc1ccccc1OC
- GI50 [1]: 25.6 µM (inactive)
- GI50 [2]: > 100 µM (inactive)
- GI50 [3]: 16 µM (inactive)
- GI50 [4]: 47 µM (inactive)
- GI50 [5]: 34.1 µM (inactive)
- GI50 [6]: 18.9 µM (inactive)
- GI50 [7]: 22.4 µM (inactive)
- GI50 [8]: 18 µM (inactive)
- GI50 [9]: 54.6 µM (inactive)
- GI50 [10]: 19.8 µM (inactive)
- GI50 [11]: 18.8 µM (inactive)
- GI50 [12]: 96.6 µM (inactive)
- GI50 [13]: 14.9 µM (inactive)
- GI50 [14]: 13.8 µM (inactive)
- GI50 [15]: 39.4 µM (inactive)
- GI50 [16]: 23.4 µM (inactive)
- GI50 [17]: 36.6 µM (inactive)
- GI50 [18]: 57.4 µM (inactive)
- GI50 [19]: 8.65 µM (inactive)
- GI50 [20]: > 100 µM
- GI50 [21]: 34.5 µM (inactive)
- GI50 [22]: 13 µM (inactive)
- GI50 [23]: 54.7 µM (inactive)
- GI50 [24]: 13.6 µM (inactive)
- GI50 [25]: 42.2 µM (inactive)
- GI50 [26]: 23.5 µM (inactive)
- GI50 [27]: 16.2 µM (inactive)
- GI50 [28]: 18.1 µM (inactive)
- GI50 [29]: 36.7 µM (inactive)
- GI50 [30]: 11.8 µM (inactive)
- GI50 [31]: 1.05 µM (active)
- GI50 [32]: 34.3 µM (inactive)
- GI50 [33]: 24.7 µM (inactive)
- GI50 [34]: 18 µM (inactive)
- GI50 [35]: 18.2 µM (inactive)
- GI50 [36]: 27.4 µM (inactive)
- GI50 [37]: 79.1 µM (inactive)
- GI50 [38]: 73.6 µM (inactive)
- GI50 [39]: 42 µM (inactive)
- GI50 [40]: 25.6 µM (inactive)
- GI50 [41]: 31 µM (inactive)
- GI50 [42]: 79.1 µM (inactive)
- GI50 [43]: 34.4 µM (inactive)
- GI50 [44]: 24.8 µM (inactive)
- GI50 [45]: 21.8 µM (inactive)
- GI50 [46]: 18.4 µM (inactive)
- GI50 [47]: 38.1 µM (inactive)
- GI50 [48]: 16.7 µM (inactive)
- GI50 [49]: 23.9 µM (inactive)
- GI50 [50]: 4.54 µM (inactive)
- GI50 [51]: 13.6 µM (inactive)

SMILES: CC(C)(C)c1ccc(OCCOc2ccc(C(C)(C)C)cc2N)c(N)c1
- GI50 [52]: 18.3 µM (inactive)
- GI50 [53]: > 100 µM (inactive)
- GI50 [1]: 29.9 µM (inactive)
- GI50 [2]: 60.1 µM (inactive)
- GI50 [3]: > 100 µM (inactive)
- GI50 [4]: > 100 µM (inactive)
- GI50 [5]: > 100 µM (inactive)
- GI50 [6]: 17.1 µM (inactive)
- GI50 [7]: > 100 µM (inactive)
- GI50 [8]: > 100 µM (inactive)
- GI50 [9]: 69.3 µM (inactive)
- GI50 [10]: 11.4 µM (inactive)
- GI50 [11]: 38.5 µM (inactive)
- GI50 [12]: 10 µM (inactive)
- GI50 [13]: > 100 µM (inactive)
- GI50 [14]: > 100 µM (inactive)
- GI50 [15]: > 100 µM (inactive)
- GI50 [16]: 26.2 µM (inactive)
- GI50 [17]: > 100 µM (inactive)
- GI50 [18]: > 100 µM (inactive)
- GI50 [19]: > 100 µM (inactive)
- GI50 [20]: 37.5 µM
- GI50 [21]: 17.4 µM (inactive)
- GI50 [22]: 22.9 µM (inactive)
- GI50 [23]: 25.6 µM (inactive)
- GI50 [24]: > 100 µM (inactive)
- GI50 [54]: > 100 µM (inactive)
- GI50 [25]: 27.6 µM (inactive)
- GI50 [26]: 91 µM (inactive)
- GI50 [27]: 17.5 µM (inactive)
- GI50 [28]: > 100 µM (inactive)
- GI50 [55]: > 100 µM (inactive)
- GI50 [29]: 9.89 µM (inactive)
- GI50 [30]: > 100 µM (inactive)
- GI50 [31]: 24.2 µM (inactive)
- GI50 [32]: > 100 µM (inactive)
- GI50 [33]: > 100 µM (inactive)
- GI50 [34]: > 100 µM (inactive)
- GI50 [56]: > 100 µM (inactive)
- GI50 [36]: > 100 µM (inactive)
- GI50 [37]: > 100 µM (inactive)
- GI50 [38]: > 100 µM (inactive)
- GI50 [39]: > 100 µM (inactive)
- GI50 [40]: 47.8 µM (inactive)
- GI50 [41]: > 100 µM (inactive)
- GI50 [42]: 20 µM (inactive)
- GI50 [43]: > 100 µM (inactive)
- GI50 [44]: 22.2 µM (inactive)
- GI50 [45]: > 100 µM (inactive)
- GI50 [46]: > 100 µM (inactive)
- GI50 [47]: > 100 µM (inactive)
- GI50 [48]: 27.8 µM (inactive)
- GI50 [49]: 29.9 µM (inactive)
- GI50 [50]: > 100 µM (inactive)
- GI50 [57]: 48.8 µM (inactive)
- GI50 [58]: > 100 µM (inactive)
- GI50 [59]: > 100 µM (inactive)
- GI50 [51]: > 100 µM (inactive)
